# Legend:
# [1] = system: neuronal samples chronically exposed to NMDA; test: Neuroprotectant assay: fEPSP amplitude on MED probe with 10 μM NMDA as excitotoxin; type: cell-based, Sprague-Dawley rats
# Method: An assay for identifying neuroprotectants first involves testing the stability of the recordings by comparing FEPSP amplitudes measured at the beginning of the experiments with those measured later, e.g., after at least 3, 24, 48, and 72 hours at the same stimulation intensity (FIG. 1C). For data analysis, the amplitude of the maximal (plateau) value of the I/O curve is used to determine stability of the recordings. Typically, it corresponds to responses obtained by stimulation intensities of […] (FIG. 2B).
# NMDA was selected as the excitotoxin. Based on the dose-response analysis described above (FIG. 4A), 10 μM NMDA was chosen as the concentration of agonist for use in this neuroprotectant assay. […] The neuronal samples and MED probes were prepared as described above.
# After performing control measurements, neuronal samples were incubated in culture medium containing 10 μM NMDA and 1 μM MK-801 for various periods of time. […] The relative amplitude of synaptic responses measured at stimulation intensities corresponding to the plateau of I/O curves after 3 days of incubation was 91±6% of control (n=3).
# After performing control measurements, neuronal samples were incubated in culture medium containing 10 μM NMDA and 30 μM memantine for various periods of time. […] However the degree of protection was much smaller than that provided by MK-801, as only 78±5% (n=3) of the initial amplitude was preserved under these conditions. The concentration dependency of memantine protection was studied using 10 μM NMDA and various concentrations of memantine.
# neuronal samples = test: fEPSP recording on MED probe: incubation with NMDA antagonist alone; type: cell-based, Sprague-Dawley rats; conditions: for amplitudes of responses, of control: n=3
# Method: (§1) For baseline electrophysiological recordings in hippocampal samples, the MED probes containing the samples were removed from the incubator and placed in a smaller CO2 incubator at 34° C. and connected to the stimulation/recording component of the probe. The culture medium was replaced with sterile artificial cerebrospinal fluid (ACSF) of the following composition (in mM): NaCl (124), NaHCO3 (26), glucose (10), KCl (3), NaH2PO4 (1.25), CaCl2 (2), MgSO4 (1), and HEPES (10).
# (§2) Evoked field potentials at all 64 sites were then recorded simultaneously with the multi-channel recording system (Panasonic, MED64 system) at a 20 kHz sampling rate. One of the planar microelectrodes of the 64 available was used for cathode stimulation. Bipolar constant current pulses (10 to 45 μA, 0.1 msec) were then produced. To collect typical responses in field CA1, one of the electrodes in the Schaffer collateral fibers was selected as a stimulating electrode while another one in stratum radiatum was selected as a recording electrode. Synaptic responses were recorded at eight-step stimulation intensities (10 to 45 μA, 5 μA steps). After each recording session, ACSF was replaced with culture medium and the samples in the probes were returned to the CO2 incubator.
# However, after 1, 2, and 3 days of incubation, the amplitudes of responses were decreased to 83±6%, 79±11%, and 76±10% (n=3) of control, respectively.
# [2] = system: cultured hippocampal samples; test: fEPSP recording on MED probe: neurodegeneration induced by NMDA and AMPA; type: cell-based, Sprague-Dawley rats; conditions: for synaptic responses, of the initial amplitude: then one hour of NMDA wash-out; for effect of chronic exposure on synaptic responses: chronic exposure of cultured hippocampal samples; for Hill coefficient: electrophysiology dose-response curve; for EC50: electrophysiology, various concentrations of agonist, read-out: EC50 (decrease of synaptic responses, Hill fit of plateau values of I/O curves)
# Method: Before use, the MED probes (Panasonic, model MED-P530AP, each electrode: […], interpolar distance: 300 μm) were soaked in 70% ethanol for 15 minutes, dried, and then sterilized with UV radiation for 15 minutes. The probe surfaces were treated overnight at room temperature with 0.1% polyethylenimine and 25 mM borate buffer, pH 8.4. The probe surface was then dried and rinsed 3 times with sterile distilled water. Finally, the probes were filled with culture medium and stored in a CO2 incubator until use (for at least one hour). The culture medium was a 2:1 mixture of Basal Medium Eagle Medium (Sigma, Catalog No. B9638) and Earle Balanced Salts Solution (Sigma, Catalog No. E7510), supplemented with the following compounds (in mM): NaCl (20), NaHCO3 (5), CaCl2 (0.2), MgSO4 (1.7), glucose (48), HEPES (26.7); 5% horse serum (GIBCO, Catalog No. 26050) and 10 ml/L penicillin-streptomycin (GIBCO, Catalog No. 10378). The pH of culture medium was then adjusted to 7.2.
# All procedures for culture preparation were carried out under a sterilized bench. Eleven day-old Sprague-Dawley rats were first sterilized with 70% ethanol, sacrificed by decapitation following anesthesia and the whole brain removed. The brains were immediately soaked in sterile ice-cold MEM (pH 7.2; GIBCO, Catalog No. 61100), supplemented with HEPES (25 mM), Tris-base (10 mM), glucose (10 mM) and MgCl2 (3 mM). Appropriate portions of the brain were then trimmed by hand and the remaining brain block placed on an ice-cold stage of a vibrating tissue slicer (Leica, model VT1000S). The thickness of the slices was set at 200 μm. The slices were gently taken off from the blade with a pipette. Each slice was trimmed, placed on the center of the MED probe, which was previously coated as mentioned above, and positioned to cover the 8×8 microelectrode array.
# After positioning the section on the MED probe, the cutting solution was removed and culture medium added to the slice up to an interface level (approximately […]). Sterile distilled water was added around the probe to increase humidity and prevent over-drying of the culture medium in the MED probe. The slices on the MED probes were then stored in a CO2 incubator at 34° C. The medium was exchanged with half volume every day.
# as §1, §2
# fEPSPs were recorded at 20 s intervals using a paired-pulse stimulation paradigm with an inter-pulse interval of 50 msec. […] Slope and decay time of the responses were remarkably similar to those recorded in acutely prepared slices using the same system (FIG. 2C). […]
# [3] = system: cultured hippocampal samples; test: PI uptake method, dose-response of excitotoxins; type: cell-based; conditions: for Hill coefficient (PI uptake method): PI uptake dose-response curve; for EC50: PI uptake, read-out: EC50 from the PI uptake method
# Method: The mechanisms underlying the reduction in amplitude of synaptic responses produced by incubation with these two excitotoxins were further studied by applying various concentrations of NMDA and AMPA to tissue samples. As in the control experiments, the plateau values of the respective I/O curves were used for the analysis (FIGS. 4A and 4B). […] For comparison, dose-response curves obtained with the PI uptake method were plotted in the same figures (FIGS. 4A and 4B, open circles and dashed lines).
smiles,measurement,setting,value
CC12CC3CC(C)(C1)CC(N)(C3)C2 [memantine],initial amplitude preserved,"[1]; 10 μM NMDA and 30 μM memantine, up to 3 days of incubation, n=3",78±5%
same,Hill coefficient of protection,[1]; 10 μM NMDA and various concentrations of memantine,1.1±3
same,IC50,"[1]; Rattus norvegicus, 10 μM NMDA and various concentrations of memantine, read-out: IC50 of protection (Hill equation)",6.9 ± 1.6 µM
same,synaptic transmission,"neuronal samples; memantine alone, even at 30 μM, long-term incubation",did not result in a significant decrease
"CN[C@H](CC(=O)O)C(=O)O [NMDA, N-methyl-D-aspartate]","synaptic responses, of the initial amplitude",[2]; 10 μM NMDA for 40 min.,109±4%
same,"synaptic responses, of the initial amplitude",[2]; 10 μM NMDA for 3 hours,66±5%
same,"synaptic responses, of the initial amplitude",[2]; 10 μM NMDA for 1 day,52±2%
same,"synaptic responses, of the initial amplitude",[2]; 10 μM NMDA for 3 days,18±3%
same,"maximal amplitude of synaptic responses, of control values","[2]; 10 μM NMDA, three hours of incubation, n=3",18±4%
same,effect of chronic exposure on synaptic responses,[2],dose-dependent decreases in synaptic responses
same,Hill coefficient,[2],1.7±0.2
same,EC50,[2],5.2 ± 0.5 µM
same,"amplitude of synaptic responses, of control values","[2]; end of incubation with 10 μM NMDA for 40 min., n=3",48±12%
same,"amplitude of synaptic responses, of control values","[2]; end of incubation with 10 μM NMDA for 3 hours, n=3",22±7%
same,"amplitude of synaptic responses, of control values","[2]; end of incubation with 10 μM NMDA for 1 day, n=3",13±3%
same,"amplitude of synaptic responses, of control values","[2]; end of incubation with 10 μM NMDA for 3 days, n=3",11±3%
same,Hill coefficient (PI uptake method),[3],3.7±1.0
same,EC50,[3],21.6 ± 3.4 µM
"Cc1onc(O)c1CC(N)C(=O)O (stereo not drawn) [AMPA, amino-3-hydroxy-5-methyl-4-isoxazolepropionic acid]",recovery of synaptic responses after agonist removal,"[2]; 1 μM AMPA 3 days, then 24 hours of AMPA removal",no recovery was observed
same,time course of the decrease in synaptic response,"[2]; 1 μM AMPA, three hours and subsequent time points","continued to decrease at subsequent time points, stabilizing after 1 day"
same,"amplitude of synaptic responses, of control values","[2]; 40 min. incubation with 3 μM AMPA, n=3",12±5%
same,synaptic response amplitudes,"[2]; 3 days of incubation with 1 μM AMPA, n=3",46±4%
same,effect of chronic exposure on synaptic responses,[2],dose-dependent decreases in synaptic responses
same,Hill coefficient,[2],2.6±0.8
same,EC50,[2],0.81 ± 0.1 µM
same,Hill coefficient (PI uptake method),[3],2.0±0.1
same,EC50,[3],3.87 ± 0.1 µM
C[C@]12N[C@H](Cc3ccccc31)c1ccccc12 [MK-801],protection of synaptic transmission against NMDA-mediated neurotoxicity,"[1]; 10 μM NMDA and 1 μM MK-801, 3 hours up to 3 days",almost completely protected
same,"relative amplitude of synaptic responses at plateau of I/O curves, of control","[1]; 10 μM NMDA and 1 μM MK-801, 3 days of incubation, n=3",91±6%
same,synaptic responses,"neuronal samples; 1 μM MK-801 alone, 3 hours of incubation",not affected
same,"amplitudes of responses, of control","neuronal samples; 1 μM MK-801 alone, 1 day of incubation",83±6%
same,"amplitudes of responses, of control","neuronal samples; 1 μM MK-801 alone, 2 days of incubation",79±11%
same,"amplitudes of responses, of control","neuronal samples; 1 μM MK-801 alone, 3 days of incubation",76±10%

# From patent US20050118565A1, “Systems and methods for assessing neuronal degeneration” (priority 2003, published 2005)
